{"source": "paper PMC8765437", "about": "“GSK3640254 Is a Novel HIV-1 Maturation Inhibitor with an Optimized Virology Profile” (Antimicrobial Agents and Chemotherapy, 2022)", "key": {"[1]": {"system": "NLRepRlucP373S-based viruses", "test": "microbe, parasite or virus in culture", "type": "cell-based, HIV-1", "conditions": "for EC50 / EC90: 10% FBS + 40% HS + 27 mg/mL of HSA"}, "[2]": {"system": "p25 cleavage in HIV-1 Gag VLPs", "test": "Gag p25 cleavage assay (delipidated VLPs, HIV-1 protease, LC-MS)", "type": "biochemical", "conditions": "WT and ΔV370 VLPs; 3 μM compound", "description": "(§1) Virus-like particles of 3 genotypes were constructed and tested. In addition to WT VLP, a VLP with V370 deleted (ΔV370; a genotype characteristic of subtype C viruses) and one with the known resistance substitution A364V were analyzed. […] A364V is a substitution adjacent to the p25/p24 cleavage site (L363/A364), and in this assay (Fig. 3C), neither MI inhibited production of p24 in the presence of HIV-1 protease.\n(§2) As previously described ([22]), VLPs (∼100 ng) were diluted (1:10) in 10 μL of VLP buffer (50 mM MES [pH 6.0], 100 mM NaCl, 2 mM EDTA, and 2 mM dithiothreitol) supplemented with 0.06% Triton X-100 and incubated at room temperature for 10 to 30 min to remove lipid bilayers. […] Samples (1 μL) were taken at 0-, 0.5-, 2-, and 4-h time points and underwent trypsin digestion. […] Peptide samples were then analyzed by liquid chromatography with mass spectrometry using a nanoAcquity ultraperformance liquid chromatography system (Waters Corporation, Milford, MA) interfaced with an LTQ XL Orbitrap mass spectrometer (Thermo Fisher Scientific, Waltham, MA). […]\n(§3) Signals for SP1 peptides were normalized to an internal protease fragment at the C-terminal end of Gag, and data were analyzed using Thermo Xcalibur processing software 3.0.63 and Thermo Xcalibur Quanbrowser software 3.0.63 (Thermo Fisher Scientific) as described previously ([23])."}, "[3]": {"system": "T1, p25 cleavage in HIV-1 Gag VLPs", "T1 construct": "made in house", "test": "Gag p25 cleavage assay (delipidated VLPs, HIV-1 protease, LC-MS)", "type": "biochemical", "conditions": "A364V VLP; 3 μM compound", "description": "as §1, §2, §3"}, "HIV-1 laboratory strains": {"system": "HIV-1 laboratory strains", "test": "Laboratory strains, luciferase activity in CEM-NKR-CCR5-Luc cells", "type": "cell-based", "description": "Virus yields were measured in dose-response experiments by either luciferase activity in human T-cells (CEM-NKR-CCR5-Luc), extracellular reverse transcriptase activity in MT-2 cells (T-tropic viruses), or extracellular p24 antigen in PM1 cells (M-tropic viruses).\nMultiple-cycle assays using recombinant viruses or clinical isolates were used to assess MI antiviral activity as described previously ([10]). pNLRepRlucP373S (the P373S change is in the Gag gene and converts an outlier polymorphism in the NL4-3 gene to the prevalent amino acid in the population) plasmids containing SDMs in Gag or gag/pr regions from clinical isolates were transfected into HEK 293T cells, and the supernatant containing recombinant virus was harvested after 4 to 5 days. Virus was used to infect MT-2 cells in the presence of a 3-fold serially diluted compound at a final dimethyl sulfoxide (DMSO) concentration of 1%. The inocula of the reporter viruses were determined based on the luciferase activity detected on day 4 postinfection. The MOI (ratio of infectious virions to target cells) of reporter-free laboratory strains and clinical isolates was 0.005, as derived from a tissue culture infectious dose study. Clinical isolates or reporter-free viruses were examined in the reporter CEM-NKR-CCR5-Luc cells or PBMCs at MOIs ranging from 0.005 to 0.01. Each infection started with a drug-free preincubation of the cell-virus mixtures, performed at 37°C and 5% CO2 for either 1 h at 2 times the final cell density (reporter viruses) or 1 h (reporter-free laboratory strains) or 3 h (clinical isolates) using cell pellets in 0.5 mL of medium. After preincubation, cell-virus mixtures were added to compound-containing 96-well plates for a final cell density of either 10,000 (MT-2 cells for reporter viruses), 20,000 (MT-2 and PM1 cells for reporter-free laboratory strains), 200,000 (PBMCs for clinical isolates), or 500,000 (CEM-NKR-CCR5-Luc for reporter-free laboratory strains) cells per well. The CEM-NKR-CCR5-Luc cell assay was performed in the presence of Polybrene (10 μg/mL). Virus growth was determined on days 4 to 5 postinfection for reporter variants or days 5 to 11 for the other viruses. The reporter viruses were detected by a luciferase assay according to manufacturer protocols (Brite-Glo luciferase kit [Promega] for CEM-NKR-CCR5-Luc cells and Dual-Luciferase Reporter 1000 assay system [Promega] for the other cells), and luminescence was detected on a Wallac Trilux. The growth of clinical isolates in PBMCs was quantitated by reverse transcriptase activity in a 96-well scintillation proximity assay (SPA). Twenty microliters of culture supernatants was mixed with 40 μL of reaction cocktail (62.5 mM Tris-HCl [pH 7.8], 100 mM KCl, 0.0625% NP-40, 2.5 mM dithiothreitol [DTT], 6.25 mM MgCl2, 1 mM EGTA, 6.25 μg/mL of poly rA, 2.5 μg/mL of streptavidin SPA beads prebound with biotinylated-dT12-18, and 1 μCi of [^3H]TTP). Mixtures were incubated at 37°C for ∼3 h and quenched with 100 μl of 0.25 M EDTA per well. Luminescence was detected on a Wallac Trilux programmed for tritium counting with SPA beads in opaque plates. The growth of the reporter-free laboratory M-tropic strains and clinical isolates was monitored by a p24 enzyme-linked immunosorbent assay (ELISA; PerkinElmer Life Sciences, Waltham, MA) performed on culture supernatants.\nMaximal percent inhibition values were calculated as MPI = 100 – (mean signals at the 2 highest concentrations of compound/mean signal of 2 no-drug control wells) × 100."}, "[4]": {"system": "NL4-3P373S viruses (WT and V370A)", "test": "Resistance selection by serial passage in increasing GSK’254 concentrations", "type": "cell-based, HIV-1", "conditions": "starting concentration 2 nM GSK’254", "procedure": "NL4-3GagP373S (WT) and the SDM NL4-3 GagP373SV370A (V370A) were used to start the selections. These variants were selected as parent virus based on common WT and V370A expression in HIV-1 subtypes (47% WT and ∼36% V370A as indicated by the LANL HIV sequence database (https://www.hiv.lanl.gov/content/index). Each selection was performed in triplicate, starting with 2 × 10^6 MT-2 cells infected with each virus at an MOI of 0.005 (50% tissue culture infectious dose determined by CPE and cultured in 2 × 10^5 cells/mL in compound-containing medium). Each passage was terminated at ∼100% CPE. To passage virus, the cultures were centrifuged, and 25 μL of viral supernatants was transferred into 10 mL of a fresh cell culture in the presence of a 2-fold-increased compound concentration."}, "[5]": {"conditions": "in vivo, cited from earlier work"}, "HIV-1": {"system": "HIV-1", "design": "method as in PMID 30352054", "conditions": "in combination with emtricitabine and tenofovir disoproxil fumarate; cited from earlier work"}, "[6]": {"conditions": "Human immunodeficiency virus 1, HS27, V370A"}, "[7]": {"conditions": "Human immunodeficiency virus 1, HS27, Wild type"}, "[8]": {"conditions": "Human immunodeficiency virus 1, HS27, ΔV370"}}, "note": "Read-outs that look alike come from different tables or passages of the source."}
{"smiles": "C=C(C)[C@@H]1CC[C@]2(NCCN3CCS(=O)(=O)CC3)CC[C@]3(C)[C@H](CC[C@@H]4[C@@]5(C)CC=C(C6=CC[C@@](CF)(C(=O)O)CC6)C(C)(C)[C@@H]5CC[C@]43C)[C@@H]12", "note": "[GSK’254]", "values": [{"measurement": "EC50", "setting": "[1]; [6]", "value": 9.1, "unit": "nM"}, {"measurement": "EC90", "setting": "[1]; [6]", "value": 42.2, "unit": "nM"}, {"measurement": "EC50", "setting": "[1]; [7]", "value": 12.3, "unit": "nM"}, {"measurement": "EC90", "setting": "[1]; [7]", "value": 26.1, "unit": "nM"}, {"measurement": "EC50", "setting": "[1]; [8]", "value": 38.2, "unit": "nM"}, {"measurement": "EC90", "setting": "[1]; [8]", "value": 195, "unit": "nM"}, {"measurement": "average potency decrease in human serum", "setting": "[1]; average of WT, V370A and ΔV370 viruses", "value": 7.9, "unit": "fold"}, {"measurement": "inhibition of p25 cleavage", "setting": "[2]", "value": "significantly better inhibition of p25 cleavage than GSK’795"}, {"measurement": "inhibition of p25 cleavage", "setting": "[3]", "value": "failed to impact cleavage"}, {"measurement": "EC50", "setting": "HIV-1 laboratory strains; Human immunodeficiency virus 1, 8 HIV-1 laboratory strains (luciferase or p24 endpoints), read-out: mean (standard error of the mean) EC50", "value": 0.8, "unit": "nM"}, {"measurement": "EC50", "setting": "HIV-1 laboratory strains; Human immunodeficiency virus 1, 8 HIV-1 laboratory strains, read-out: EC50 range", "value": "0.3 to 1.2", "unit": "nM"}, {"measurement": "EC50", "setting": "HIV-1 laboratory strains; Human immunodeficiency virus 1, HXB2, HXB2, T tropic, read-out: EC50 ± SD", "value": "0.7 ± 0.1", "unit": "nM"}, {"measurement": "EC50", "setting": "HIV-1 laboratory strains; Human immunodeficiency virus 1, IIIB, IIIB, T tropic, read-out: EC50 ± SD", "value": "0.6 ± 0.4", "unit": "nM"}, {"measurement": "EC50", "setting": "HIV-1 laboratory strains; Human immunodeficiency virus 1, LAI, T tropic, read-out: EC50 ± SD", "value": "0.7 ± 0.1", "unit": "nM"}, {"measurement": "EC50", "setting": "HIV-1 laboratory strains; Human immunodeficiency virus 1, MN, T tropic, read-out: EC50 ± SD", "value": 0.3, "unit": "nM"}, {"measurement": "EC50", "setting": "HIV-1 laboratory strains; Human immunodeficiency virus 1, NL43, NL4-3, T tropic, read-out: EC50 ± SD", "value": "0.9 ± 0.2", "unit": "nM"}, {"measurement": "EC50", "setting": "HIV-1 laboratory strains; Human immunodeficiency virus 1, RF, T tropic, read-out: EC50 ± SD", "value": "0.9 ± 0.15", "unit": "nM"}, {"measurement": "EC50", "setting": "HIV-1 laboratory strains; Human immunodeficiency virus 1, reporter cell line, read-out: EC50 values for T-tropic HIV-1", "value": "< 1", "unit": "nM"}, {"measurement": "average time until sufficient viral titer to permit passage 1", "setting": "[4]", "value": 24, "unit": "days"}, {"measurement": "safety and tolerability", "setting": "[5]; po", "value": "acceptable safety and tolerability"}, {"measurement": "gastrointestinal intolerability", "setting": "[5]", "value": "only mild gastrointestinal intolerability"}]}
{"smiles": "C=C(C)[C@@H]1CC[C@]2(NCCN3CCS(=O)(=O)CC3)CC[C@]3(C)[C@H](CC[C@@H]4[C@@]5(C)CC=C(c6ccc(C(=O)O)cc6)C(C)(C)[C@@H]5CC[C@]43C)[C@@H]12", "note": "[GSK’795, reference compound]", "values": [{"measurement": "gastrointestinal adverse events", "setting": "HIV-1", "value": "a number of gastrointestinal adverse events"}]}
